Source: paper PMC11582173, “Synthesis, cytotoxicity, anti-inflammatory, anti-metastatic and anti-oxidant activities of novel chalcones incorporating 2-phenoxy-N-arylacetamide and thiophene moieties: induction of apoptosis in MCF7 and HEP2 cells” (Naunyn-Schmiedeberg's Archives of Pharmacology, 2024)
Where “and” joins values, the source holds several entries; their conditions need not be identical. Identical values can stand only once.

Tested on: P53
Test: ELISA, P53 concentration
Format: cell-based, human
Experimental: The concentrations of matrix metalloproteinase-2 (MMP2), matrix metalloproteinase-9 (MMP9), Bcl2, BAX, P53, Malondialdehyde (MDA), Glutathione (GSH), caspase 8, caspase 9 and IL-6 were measured quantitatively in 5c treated MCF7 and HEP2 cells using ELISA (Enzyme-Linked Immunosorbent Assay) (Table 4). Gelatinases are a collective word for MMP-2 and MMP-9, where MMP-2 is gelatinase-A and MMP-9 is gelatinase-B. Solid tumor invasion, metastasis, and angiogenesis have long been linked to gelatinases (Das et al. [2021]). […] Bcl2 is a crucial protein that targets apoptosis inhibition. It is regarded as a predictive biomarker or therapeutic target in the diagnosis of cancer due to its broad expression in a variety of cancers (Porter et al. [2009]). […] The pro-apoptotic protein BAX permeabilizes the mitochondrial outer membrane by changing from a cytosolic monomer to a hazardous oligomer triggering the apoptosis process (Fulda and Debatin [2006]). […] P53 transcription factor performs an essential tumor suppressor role by coordinating a wide range of physiological responses, including DNA repair, cell cycle arrest, cellular senescence, cell death, cell differentiation, and metabolism (Liebl and Hofmann [2021]). It was activated in MCF7 and HEP2-treated cells with values (4.28 and 3.109 ng/mL), respectively, compared to their controls (3.44 and 2.06 ng/mL). […]

COc1ccc(NC(=O)COc2ccc(C=CC(=O)c3cccs3)cc2)cc1 [Compound 5c, N-(4-Methoxyphenyl)-2-(4-(3-oxo-3-(thiophen-2-yl)prop-1-en-1-yl)phenoxy)acetamide]
P53 concentration (5c treated HEP2 cells, untreated 2.06±0.425): 3.109 ng/mL and 3.109 ± 0.089 ng/mL | P53 concentration (5c treated MCF7 cells, untreated 3.44±0.25): 4.28 ng/mL and 4.28 ± 0.188 ng/mL
